In ChEMBL document CHEMBL1127439, “Structure-activity relationship studies of central nervous system agents. 13. 4-[3-(Benzotriazol-1-yl)propyl]-1-(2-methoxyphenyl)piperazine, a new putative 5-HT1A receptor antagonist, and its analogs” (J Med Chem, 1994):

What was measured:
Rattus norvegicus [1] = assay: Tested for the induction of lower lip retraction (LLR) by the investigated compounds in rat at dosage of 10 mg/kg; assay type: functional
Mus musculus [2] = assay: Effect on body temperature in mice at intraperitoneal dosage of 10 mg/kg, (compound administered 30 min before the test) after 60 min; assay type: functional
Mus musculus [3] = assay: Effect on 8-OH-DPAT-induced hypothermia in mice (5 mg/kg) at intraperitoneal dosage of 10 mg/kg of compound after 60 mins; assay type: functional
Rattus norvegicus [4] = assay: Tested for the effect on 8-OH-DPAT-induced behavior in reserpine pretreated rat against flat body posture at dosage of 10 mg/kg; assay type: functional
Rattus norvegicus [5] = assay: Tested for the effect on 8-OH-DPAT-induced lower lip retraction (LLR) in rat at dosage of 10 mg/kg; assay type: functional
Rattus norvegicus [6] = assay: Tested for the effect on 8-OH-DPAT-induced behavior in reserpine pretreated rat against forepaw treading at dosage of 10 mg/kg; assay type: functional
Mus musculus [7] = assay: Effect on 8-OH-DPAT-induced hypothermia in mice (5 mg/kg) at intraperitoneal dosage of 10 mg/kg of compound after 30 mins; assay type: functional
Mus musculus [8] = assay: Effect on 8-OH-DPAT-induced hypothermia in mice (5 mg/kg) at intraperitoneal dosage of 10 mg/kg of compound after 45 mins.; assay type: functional
Mus musculus [9] = assay: Effect on 8-OH-DPAT-induced hypothermia in mice (5 mg/kg) at intraperitoneal dosage of 10 mg/kg of compound after 15 mins; assay type: functional
Mus musculus [10] = assay: Effect on body temperature in mice at intraperitoneal dosage of 10 mg/kg, (compound administered 30 min before the test) after 30 min; assay type: functional
Mus musculus [11] = assay: Effect on body temperature in mice at intraperitoneal dosage of 10 mg/kg, (compound administered 30 min before the test) after 45 min; assay type: functional
Rattus norvegicus [12] = species on record: Rattus norvegicus; assay: Selectivity is the ratio between Ki values of 5-HT2 and 5-HT1A
[13] = biological target: Serotonin 2 (5-HT2) receptor (Rattus norvegicus, UniProt P30994+P08909+P14842); assay: Tested in vitro for receptor binding affinity against 5-hydroxytryptamine 2 receptor using radioligand [3H]ketanserin; assay type: protein assay
[14] = biological target: T1, 5-hydroxytryptamine receptor 1A (Rattus norvegicus, UniProt P19327); assay: Tested in vitro for receptor binding affinity against 5-hydroxytryptamine 1A receptor using radioligand [3H]8-OH-DPAT
T1 sequence (P19327 whole entry): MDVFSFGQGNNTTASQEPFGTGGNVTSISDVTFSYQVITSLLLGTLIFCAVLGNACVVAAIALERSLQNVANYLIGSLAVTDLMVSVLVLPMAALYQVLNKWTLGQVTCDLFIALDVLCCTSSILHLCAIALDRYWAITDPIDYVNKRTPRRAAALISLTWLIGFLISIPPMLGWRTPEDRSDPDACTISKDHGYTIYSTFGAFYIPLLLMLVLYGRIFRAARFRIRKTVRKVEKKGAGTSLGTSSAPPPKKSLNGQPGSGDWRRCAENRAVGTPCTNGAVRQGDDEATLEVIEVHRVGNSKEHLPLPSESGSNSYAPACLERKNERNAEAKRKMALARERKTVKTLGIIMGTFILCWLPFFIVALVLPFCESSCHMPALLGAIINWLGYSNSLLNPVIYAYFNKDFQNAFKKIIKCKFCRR

Rattus norvegicus [15] = assay: Tested for the effect on 8-OH-DPAT-induced lower lip retraction (LLR) in rat at dosage of 2 mg/kg; assay type: functional
Mus musculus [16] = assay: Effect on body temperature in mice at intraperitoneal dosage of 16 mg/kg, (compound administered 30 min before the test) after 90 min; assay type: functional
Mus musculus [17] = assay: Effect on 8-OH-DPAT-induced hypothermia in mice (5 mg/kg) at intraperitoneal dosage of 8 mg/kg of compound after 30 mins; assay type: functional
Rattus norvegicus [18] = assay: Tested for the effect on 8-OH-DPAT-induced behavior in reserpine pretreated rat against flat body posture at dosage of 8 mg/kg; assay type: functional
Rattus norvegicus [19] = assay: Tested for the effect on 8-OH-DPAT-induced behavior in reserpine pretreated rat against flat body posture at dosage of 4 mg/kg; assay type: functional
Mus musculus [20] = assay: Effect on body temperature in mice at intraperitoneal dosage of 4 mg/kg, (compound administered 30 min before the test) after 30 min; assay type: functional
Mus musculus [21] = assay: Effect on body temperature in mice at intraperitoneal dosage of 16 mg/kg, (compound administered 30 min before the test) after 75 min; assay type: functional
Mus musculus [22] = assay: Effect on 8-OH-DPAT-induced hypothermia in mice (5 mg/kg) at intraperitoneal dosage of 4 mg/kg of compound after 60 mins; assay type: functional
Mus musculus [23] = assay: effect on body temperature in mice at intraperitoneal dosage of 16 mg/kg, (compound administered 30 min before the test) after 45 min; assay type: functional
Mus musculus [24] = assay: Effect on body temperature in mice at intraperitoneal dosage of 16 mg/kg, (compound administered 30 min before the test) after 30 min; assay type: functional
Rattus norvegicus [25] = assay: Tested for the induction of lower lip retraction (LLR) by the investigated compounds in rat at dosage of 16 mg/kg; assay type: functional
Mus musculus [26] = assay: Effect on 8-OH-DPAT-induced hypothermia in mice (5 mg/kg) at intraperitoneal dosage of 8 mg/kg of compound after 45 mins; assay type: functional
Mus musculus [27] = assay: Effect on body temperature in mice at intraperitoneal dosage of 8 mg/kg, (compound administered 30 min before the test) after 45 min; assay type: functional
Mus musculus [28] = assay: Effect on body temperature in mice at intraperitoneal dosage of 16 mg/kg, (compound administered 30 min before the test) after 60 min; assay type: functional
Rattus norvegicus [29] = assay: Tested for the effect on 8-OH-DPAT-induced behavior in reserpine pretreated rat against forepaw treading at dosage of 8 mg/kg; assay type: functional
Mus musculus [30] = assay: Effect on 8-OH-DPAT-induced hypothermia in mice (5 mg/kg) at intraperitoneal dosage of 4 mg/kg of compound after 45 mins; assay type: functional
Mus musculus [31] = assay: Effect on body temperature in mice at intraperitoneal dosage of 4 mg/kg, (compound administered 30 min before the test) after 75 min; assay type: functional
Mus musculus [32] = assay: Effect on 8-OH-DPAT-induced hypothermia in mice (5 mg/kg) at intraperitoneal dosage of 16 mg/kg of compound after 45 mins; assay type: functional
Mus musculus [33] = assay: Effect on 8-OH-DPAT-induced hypothermia in mice (5 mg/kg) at intraperitoneal dosage of 8 mg/kg of compound after 60 mins; assay type: functional
Mus musculus [34] = assay: Effect on 8-OH-DPAT-induced hypothermia in mice (5 mg/kg) at intraperitoneal dosage of 4 mg/kg of compound after 30 mins; assay type: functional
Mus musculus [35] = assay: Effect on body temperature in mice at intraperitoneal dosage of 8 mg/kg, (compound administered 30 min before the test) after 60 min; assay type: functional
Rattus norvegicus [36] = assay: Tested for the induction of lower lip retraction (LLR) by the investigated compounds in rat at dosage of 4 mg/kg; assay type: functional
Rattus norvegicus [37] = assay: Tested for the effect on 8-OH-DPAT-induced lower lip retraction (LLR) in rat at dosage of 8 mg/kg; assay type: functional
Rattus norvegicus [38] = assay: Tested for the effect on 8-OH-DPAT-induced behavior in reserpine pretreated rat against forepaw treading at dosage of 16 mg/kg; assay type: functional
Rattus norvegicus [39] = assay: Tested for the induction of lower lip retraction (LLR) by the investigated compounds in rat at dosage of 8 mg/kg; assay type: functional
Rattus norvegicus [40] = assay: Tested for the effect on 8-OH-DPAT-induced lower lip retraction (LLR) in rat at dosage of 16 mg/kg; assay type: functional
Mus musculus [41] = assay: Effect on body temperature in mice at intraperitoneal dosage of 4 mg/kg, (compound administered 30 min before the test) after 90 min; assay type: functional
Mus musculus [42] = assay: Effect on 8-OH-DPAT-induced hypothermia in mice (5 mg/kg) at intraperitoneal dosage of 16 mg/kg of compound after 60 mins; assay type: functional
Mus musculus [43] = assay: Effect on 8-OH-DPAT-induced hypothermia in mice (5 mg/kg) at intraperitoneal dosage of 4 mg/kg of compound after 15 mins; assay type: functional
Mus musculus [44] = assay: Effect on body temperature in mice at intraperitoneal dosage of 8 mg/kg, (compound administered 30 min before the test) after 75 min; assay type: functional
Mus musculus [45] = assay: Effect on body temperature in mice at intraperitoneal dosage of 4 mg/kg, (compound administered 30 min before the test) after 45 min; assay type: functional
Mus musculus [46] = assay: Effect on 8-OH-DPAT-induced hypothermia in mice (5 mg/kg) at intraperitoneal dosage of 8 mg/kg of compound after 15 mins; assay type: functional
Rattus norvegicus [47] = assay: Tested for the effect on 8-OH-DPAT-induced lower lip retraction (LLR) in rat at dosage of 4 mg/kg; assay type: functional
Mus musculus [48] = assay: Effect on 8-OH-DPAT-induced hypothermia in mice (5 mg/kg) at intraperitoneal dosage of 16 mg/kg of compound after 30 mins; assay type: functional
Mus musculus [49] = assay: Effect on 8-OH-DPAT-induced hypothermia in mice (5 mg/kg) at intraperitoneal dosage of 16 mg/kg of compound after 15 mins; assay type: functional
Rattus norvegicus [50] = assay: Tested for the effect on 8-OH-DPAT-induced behavior in reserpine pretreated rat against flat body posture at dosage of 16 mg/kg; assay type: functional
Mus musculus [51] = assay: Effect on body temperature in mice at intraperitoneal dosage of 8 mg/kg, (compound administered 30 min before the test) after 30 min; assay type: functional
Rattus norvegicus [52] = assay: Tested for the effect on 8-OH-DPAT-induced behavior in reserpine pretreated rat against forepaw treading at dosage of 4 mg/kg; assay type: functional
Mus musculus [53] = assay: Effect on body temperature in mice at intraperitoneal dosage of 8 mg/kg, (compound administered 30 min before the test) after 90 min; assay type: functional
Mus musculus [54] = assay: Effect on body temperature in mice at intraperitoneal dosage of 4 mg/kg, (compound administered 30 min before the test) after 60 min; assay type: functional
Rattus norvegicus [55] = assay: Tested for the induction of lower lip retraction (LLR) by the investigated compounds in rat at dosage of 2 mg/kg; assay type: functional

SMILES: COc1ccccc1N1CCN(C[C@@H](C(=O)NC(C)(C)C)c2ccccc2)CC1
- LLR score (Rattus norvegicus [1]): 0.1
- Delta t (Mus musculus [2]): 0.2 °C
- Delta t (Mus musculus [3]): 0.1 °C
- Behavioral score (Rattus norvegicus [4]): 9.7
- LLR score (Rattus norvegicus [5]): 0.8
- Behavioral score (Rattus norvegicus [6]): 1
- Delta t (Mus musculus [7]): 0 °C
- Delta t (Mus musculus [8]): 0.3 °C
- Delta t (Mus musculus [9]): 0.2 °C
- Delta t (Mus musculus [10]): 0.2 °C
- Delta t (Mus musculus [11]): 0.2 °C

SMILES: CCCCN1CCN(c2ccccc2OC)CC1
- Selectivity (Rattus norvegicus [12]): 40
- Ki [13]: 2280 nM
- Ki [14]: 57 nM

SMILES: COc1ccccc1N1CCN(CCn2nc3ccccc3n2)CC1
- Selectivity (Rattus norvegicus [12]): 43
- Ki [13]: 1760 nM
- Ki [14]: 41 nM

SMILES: COc1ccccc1N1CCN(CCCn2nc3ccccc3n2)CC1
- LLR score (Rattus norvegicus [15]): 2.3
- Delta t (Mus musculus [16]): 0.2 °C
- Delta t (Mus musculus [17]): 1.5 °C
- Behavioral score (Rattus norvegicus [18]): 11.8
- Behavioral score (Rattus norvegicus [19]): 13.8
- Delta t (Mus musculus [20]): 0.1 °C
- Selectivity (Rattus norvegicus [12]): 66
- Ki [13]: 1580 nM
- Delta t (Mus musculus [21]): 0.4 °C
- Delta t (Mus musculus [22]): 0.6 °C
- Delta t (Mus musculus [23]): 0.3 °C
- Delta t (Mus musculus [24]): 0.2 °C
- LLR score (Rattus norvegicus [25]): 0.3
- Delta t (Mus musculus [26]): 0.9 °C
- Delta t (Mus musculus [27]): 0.2 °C
- Delta t (Mus musculus [28]): 0.3 °C
- Behavioral score (Rattus norvegicus [29]): 4.8
- Delta t (Mus musculus [30]): 0.9 °C
- Delta t (Mus musculus [31]): 0.2 °C
- Delta t (Mus musculus [32]): 1.3 °C
- Delta t (Mus musculus [33]): 0.7 °C
- Delta t (Mus musculus [34]): 1.4 °C
- Delta t (Mus musculus [35]): 0.4 °C
- LLR score (Rattus norvegicus [36]): 0.2
- LLR score (Rattus norvegicus [37]): 1.8
- Behavioral score (Rattus norvegicus [38]): 4
- LLR score (Rattus norvegicus [39]): 0.4
- LLR score (Rattus norvegicus [40]): 2.2
- Delta t (Mus musculus [41]): 0.1 °C
- Delta t (Mus musculus [42]): 0.9 °C
- Delta t (Mus musculus [43]): 1.8 °C
- Ki [14]: 24 nM
- Delta t (Mus musculus [44]): 0.3 °C
- Delta t (Mus musculus [45]): 0.3 °C
- Delta t (Mus musculus [46]): 2 °C
- LLR score (Rattus norvegicus [47]): 1.8
- Delta t (Mus musculus [48]): 2 °C
- Delta t (Mus musculus [49]): 2.6 °C
- Behavioral score (Rattus norvegicus [50]): 12.4
- Delta t (Mus musculus [51]): 0.1 °C
- Behavioral score (Rattus norvegicus [52]): 8
- Delta t (Mus musculus [53]): 0.3 °C
- Delta t (Mus musculus [54]): 0.1 °C
- LLR score (Rattus norvegicus [55]): 0.2
